Data as given in patent publication US8293736B2, “Purine compounds selective for PI3K P110 delta, and methods of use” (F. Hoffmann la Roche AG, priority 2010, dated 2012).

Columns and labels:
p110 delta = target: T1, p110 delta (Homo sapiens, UniProt O00329); assay: PI3K isoform inhibition assay (fluorescence polarization), p110 delta; format: biochemical; settings: Ki apparent, Morrison equation; 25 μM ATP, 10 μM PIP2
T1 construct: purchased Upstate Group, Millipore; Dundee, UK
Protocol: (§1) Determination of the activity of PI3 kinase activity of Formula I compounds is possible by a number of direct and indirect detection methods.
(§2) PI3K enzymatic activity was assayed by measuring the amount of product phosphatidylinositol 3,4,5-phosphate (PIP3) formed from substrate 4,5 phosphatidylinositol 4,5-phosphate (PIP2) using a fluorescence polarization displacement assay. The decrease in fluorescence polarization of a fluorescent PIP3 probe is measured as it is displaced from a PIP3-binding protein GRP-1 detector by PI3K-catalyzed product. […] The kinase reactions were initiated by the addition of 40 ng/mL p110α/p85α, 300 ng/mL p110β/p85α, 40 ng/mL p110γ, or 40 ng/mL p110δ/p85α (Upstate Group, Millipore; Dundee, UK), and 10 μM PIP2 (Echelon Biosciences) to the wells. […] After 60 minutes of incubation at room temperature to allow equilibration of labeled and unlabeled PIP3 binding, the parallel and perpendicular components of the fluorescence emissions from each sample were measured at an excitation wavelength of 530 nm and an emission wavelength of 590 nm using an Envision fluorescent plate reader with a rhodamine filter (PerkinElmer Life and Analytical Sciences; Wellesley, Mass.). The assay is capable of detecting 0.1-2.0 μM PIP3 product. The Ki apparent values were obtained by fitting the dose-dependent inhibition data to the Morrison equation for tight-binding, competitive inhibitors. Reference: R. A. Copeland, Enzymes. “A Practical Introduction to Structure, Mechanism and Data Analysis”.
The Formula I compound was serially diluted in 100% DMSO. The kinase reaction was incubated for 1 h at room temperature, and the reaction was terminated by the addition of PBS. IC50 values were subsequently determined using sigmoidal dose-response curve fit (variable slope). […]

[1] = system: production of CD69 by B lymphocytes in human whole blood; assay: CD69 Whole Blood Assay; format: cell-based; settings: Lymphocyte; human whole blood activated with goat F(ab')2 anti-human IgM, 20 hours
From the text: There is good evidence that B-cells play a key role in the pathogenesis of autoimmune and/or inflammatory disease. Protein-based therapeutics that deplete B cells such as Rituxan are effective against autoantibody-driven inflammatory diseases such as rheumatoid arthritis (Rastetter et al. (2004) Annu Rev Med 55:477). CD69 is the early activation marker in leukocytes including T cells, thymocytes, B cells, NK cells, neutrophils, and eosinophils. The CD69 human whole blood assay (Example 903) determines the ability of compounds to inhibit the production of CD69 by B lymphocytes in human whole blood activated by crosslinking surface IgM with goat F(ab′)2 anti-human IgM.
Human blood is obtained from healthy volunteers, with the following restrictions: 1 week drug-free, non-smokers. Blood (approximately 20 mls to test 8 compounds) is collected by venipuncture into Vacutainer tubes with sodium heparin.
Solutions of Formula I compounds at 1000 or 2000 μM in PBS (20×), are diluted by three-fold serial dilutions in 10% DMSO in PBS for a nine point dose-response curve. An aliquot of 5.5 μl of each compound is added in duplicate to a 2 ml 96-well plate; 5.5 μl of 10% DMSO in PBS is added as control and no-stimulus wells. Human whole blood—HWB (100 μl) is added to each well. After mixing the plates are incubated at 37° C., 5% CO2, 100% humidity for 30 minutes. Goat F(ab′)2 anti-human IgM (10 μl of a 500 μg/ml solution, 50 μg/ml final) is added to each well (except the no-stimulus wells) with mixing and the plates are incubated for an additional 20 hours. At the end of the 20 hour incubation, samples are incubated with fluorescent labeled antibodies for 30 minutes, at 37° C., 5% CO2, 100% humidity. Include induced control, unstained and single stains for compensation adjustments and initial voltage settings. Samples are then lysed with Pharmingen Lyse™ according to the manufacturer's instructions. Samples are then transferred to a 96 well plate suitable to be run on the AMS 96 well system on the BD Calibur FACS cell sorter instrument. Data acquired and Mean Fluorescence Intensity values were obtained using Cell Quest Software. Results are initially analyzed by FACS analysis software (Flow Jo). The IC50 values are calculated by ActivityBase™ using Xlfit™ version 3, equation 201.

p110 alpha = target: T2, p110 alpha (Homo sapiens, UniProt P42336); assay: PI3K isoform inhibition assay (fluorescence polarization), p110 alpha; format: biochemical; settings: delta/alpha selectivity ratio
T2 construct: purchased Upstate Group, Millipore; Dundee, UK
Protocol: as §1, §2
The same protocol may be used to establish Ki values for p110α (alpha) PI3K binding.
The four Class I PI 3-kinases are cloned into baculovirus vectors as follows: […]

T2 sequence (P42336 whole entry, species assumed, canonical isoform): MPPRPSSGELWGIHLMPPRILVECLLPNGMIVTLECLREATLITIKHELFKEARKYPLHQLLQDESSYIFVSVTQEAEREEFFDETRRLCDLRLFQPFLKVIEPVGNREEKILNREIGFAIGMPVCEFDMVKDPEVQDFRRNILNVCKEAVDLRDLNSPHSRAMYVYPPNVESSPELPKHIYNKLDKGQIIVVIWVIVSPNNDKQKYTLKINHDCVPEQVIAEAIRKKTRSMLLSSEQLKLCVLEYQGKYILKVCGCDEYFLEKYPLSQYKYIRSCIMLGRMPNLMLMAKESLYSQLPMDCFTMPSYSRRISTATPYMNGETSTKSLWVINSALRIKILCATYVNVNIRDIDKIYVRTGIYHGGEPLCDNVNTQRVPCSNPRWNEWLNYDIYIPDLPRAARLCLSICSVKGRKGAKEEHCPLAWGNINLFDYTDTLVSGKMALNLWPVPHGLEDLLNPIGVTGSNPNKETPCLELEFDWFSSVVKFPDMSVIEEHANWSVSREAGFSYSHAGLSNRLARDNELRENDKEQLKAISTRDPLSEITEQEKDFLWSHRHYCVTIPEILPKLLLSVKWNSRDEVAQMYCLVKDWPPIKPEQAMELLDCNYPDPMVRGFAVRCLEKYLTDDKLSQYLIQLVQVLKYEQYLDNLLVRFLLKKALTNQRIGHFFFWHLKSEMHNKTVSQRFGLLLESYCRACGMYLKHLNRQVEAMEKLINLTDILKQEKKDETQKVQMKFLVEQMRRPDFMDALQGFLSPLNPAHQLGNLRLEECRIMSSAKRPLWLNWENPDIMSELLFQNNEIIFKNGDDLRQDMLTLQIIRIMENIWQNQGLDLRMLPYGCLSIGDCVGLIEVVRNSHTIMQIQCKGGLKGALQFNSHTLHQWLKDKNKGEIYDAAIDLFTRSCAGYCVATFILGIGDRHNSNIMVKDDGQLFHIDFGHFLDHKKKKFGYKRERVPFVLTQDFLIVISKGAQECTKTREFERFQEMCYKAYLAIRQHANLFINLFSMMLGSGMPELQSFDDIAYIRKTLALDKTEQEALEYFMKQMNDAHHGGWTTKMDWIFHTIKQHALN
T2 sequence (P27986 whole entry partner, species assumed, canonical isoform): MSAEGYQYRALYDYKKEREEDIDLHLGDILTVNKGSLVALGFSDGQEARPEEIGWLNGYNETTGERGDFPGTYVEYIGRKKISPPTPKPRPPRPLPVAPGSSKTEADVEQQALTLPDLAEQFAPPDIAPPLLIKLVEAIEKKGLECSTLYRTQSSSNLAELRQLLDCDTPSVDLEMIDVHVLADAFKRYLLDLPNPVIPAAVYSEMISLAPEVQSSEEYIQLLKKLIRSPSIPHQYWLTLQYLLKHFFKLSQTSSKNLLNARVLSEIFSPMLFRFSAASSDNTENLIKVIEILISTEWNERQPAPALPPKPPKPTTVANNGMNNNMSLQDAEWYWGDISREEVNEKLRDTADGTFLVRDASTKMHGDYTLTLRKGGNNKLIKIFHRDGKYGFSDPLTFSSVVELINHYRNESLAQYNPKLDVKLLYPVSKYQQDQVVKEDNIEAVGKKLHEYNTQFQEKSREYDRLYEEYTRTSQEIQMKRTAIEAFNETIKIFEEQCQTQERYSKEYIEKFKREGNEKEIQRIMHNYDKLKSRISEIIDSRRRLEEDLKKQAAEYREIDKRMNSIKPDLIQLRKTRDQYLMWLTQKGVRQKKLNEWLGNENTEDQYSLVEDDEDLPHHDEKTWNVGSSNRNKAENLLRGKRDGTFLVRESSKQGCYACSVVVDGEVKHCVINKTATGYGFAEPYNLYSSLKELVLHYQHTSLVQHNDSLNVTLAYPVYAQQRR
T1 sequence (O00329 whole entry, canonical isoform): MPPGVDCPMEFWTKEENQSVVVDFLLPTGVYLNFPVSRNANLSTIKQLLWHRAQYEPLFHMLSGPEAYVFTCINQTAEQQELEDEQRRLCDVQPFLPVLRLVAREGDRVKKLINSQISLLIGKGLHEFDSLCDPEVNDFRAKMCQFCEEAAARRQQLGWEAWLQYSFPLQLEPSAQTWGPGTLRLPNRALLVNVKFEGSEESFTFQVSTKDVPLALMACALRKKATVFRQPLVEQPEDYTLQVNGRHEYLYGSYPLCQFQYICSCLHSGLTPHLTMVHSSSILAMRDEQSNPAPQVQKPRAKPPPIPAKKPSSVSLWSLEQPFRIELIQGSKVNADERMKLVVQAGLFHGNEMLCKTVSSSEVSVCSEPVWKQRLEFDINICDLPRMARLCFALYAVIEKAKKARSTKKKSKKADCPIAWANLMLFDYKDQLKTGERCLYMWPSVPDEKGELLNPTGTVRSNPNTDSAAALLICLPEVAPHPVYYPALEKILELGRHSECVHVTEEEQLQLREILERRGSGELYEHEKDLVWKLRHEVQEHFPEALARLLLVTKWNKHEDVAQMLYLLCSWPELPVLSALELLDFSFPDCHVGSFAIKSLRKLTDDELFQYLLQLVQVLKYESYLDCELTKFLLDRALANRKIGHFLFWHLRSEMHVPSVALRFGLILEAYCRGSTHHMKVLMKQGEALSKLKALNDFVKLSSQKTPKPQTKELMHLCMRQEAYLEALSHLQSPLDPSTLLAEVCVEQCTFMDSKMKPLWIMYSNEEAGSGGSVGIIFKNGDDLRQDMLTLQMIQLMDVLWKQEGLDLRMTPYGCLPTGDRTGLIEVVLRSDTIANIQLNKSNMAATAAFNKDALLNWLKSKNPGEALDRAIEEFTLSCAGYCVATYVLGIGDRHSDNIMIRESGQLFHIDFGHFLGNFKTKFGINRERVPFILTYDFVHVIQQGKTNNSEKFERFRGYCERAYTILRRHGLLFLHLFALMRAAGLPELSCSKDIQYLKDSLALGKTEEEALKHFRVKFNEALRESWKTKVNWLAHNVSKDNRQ
T1 sequence (P27986 whole entry partner, canonical isoform): as the sequence (P27986 whole entry partner, species assumed, canonical isoform) above

SMILES	Ki (p110 delta)	IC50 [1]	Ki p110 alpha/ Ki p110 delta (p110 alpha)
CCc1nc2ccccc2n1-c1nc(N2CCOCC2)c2nc(OC3CCN(C4CCOCC4)CC3)n(C)c2n1 [Compound 101, 4-(2-(2-ethyl-1H-benzo[d]imidazol-1-yl)-9-methyl-8-(1-(tetrahydro-2H-pyran-4-yl)piperidin-4-yloxy)-9H-purin-6-yl)morpholine]	1.84 nM	35.4 nM	78
CC(C)c1nc2ccccc2n1-c1nc(N2CCOCC2)c2nc(OC3CN(C4CCS(=O)(=O)CC4)C3)n(C)c2n1 [Compound 103, 4-(2-(2-isopropyl-1H-benzo[d]imidazol-1-yl)-9-methyl-8-(1-(1,1-dioxo-tetrahydro-2H-thiopyran-4-yl)azetidin-3-yloxy)-9H-purin-6-yl)morpholine]	0.464 nM	3 nM	256
CC(C)c1nc2ccccc2n1-c1nc(N2CCOCC2)c2nc(OC3CN(CC(C)(C)O)C3)n(C)c2n1 [Compound 105, 1-(3-(2-(2-isopropyl-1H-benzo[d]imidazol-1-yl)-9-methyl-6-morpholino-9H-purin-8-yloxy)azetidin-1-yl)-2-methylpropan-2-ol]	2.03 nM	28.1 nM	93
CC(C)C(=O)N1CC(Oc2nc3c(N4CCOCC4)nc(-n4c(C(C)C)nc5ccccc54)nc3n2C)C1 [Compound 107, 1-(3-(2-(2-isopropyl-1H-benzo[d]imidazol-1-yl)-9-methyl-6-morpholino-9H-purin-8-yloxy)azetidin-1-yl)-2-methylpropan-1-one]	0.38 nM	8.3 nM	173
CCc1nc2ccccc2n1-c1nc(N2CCOCC2)c2nc(OC3CN(C(=O)C(C)C)C3)[nH]c2n1 [Compound 128, 1-(3-(2-(2-ethyl-1H-benzo[d]imidazol-1-yl)-6-morpholino-9H-purin-8-yloxy)azetidin-1-yl)-2-methylpropan-1-one]	0.629 nM	15.9 nM	141

Now from value to compound:

Ki (p110 delta)	IC50 [1]	Ki p110 alpha/ Ki p110 delta (p110 alpha)	SMILES
3.65 nM	14.6 nM	180	CC(C)C(=O)N1CC(Oc2nc3c(N4CCOCC4)nc(-n4c(N(C)C)nc5ccccc54)nc3n2C)C1 [Compound 131, 1-(3-(2-(2-(dimethylamino)-1H-benzo[d]imidazol-1-yl)-9-methyl-6-morpholino-9H-purin-8-yloxy)azetidin-1-yl)-2-methylpropan-1-one]
8.53 nM	10.8 nM	27	CCc1nc2ccccc2n1-c1nc(N2CCOCC2)c2nc(OC3CNC3)n(C)c2n1 [Compound 133, 4-(8-(azetidin-3-yloxy)-2-(2-ethyl-1H-benzo[d]imidazol-1-yl)-9-methyl-9H-purin-6-yl)morpholine]
0.321 nM		91	CCc1nc2ccccc2n1-c1nc(N2CCOCC2)c2nc(OC3CN(C(=O)C4(C(F)(F)F)CC4)C3)n(C)c2n1 [Compound 155, (3-(2-(2-ethyl-1H-benzo[d]imidazol-1-yl)-9-methyl-6-morpholino-9H-purin-8-yloxy)azetidin-1-yl)(1-(trifluoromethyl)cyclopropyl) methanone]
0.539 nM		76	CCc1nc2ccccc2n1-c1nc(N2CCOCC2)c2nc(OC3CN(C(=O)C4(COC)CC4)C3)n(C)c2n1 [Compound 156, (3-(2-(2-ethyl-1H-benzo[d]imidazol-1-yl)-9-methyl-6-morpholino-9H-purin-8-yloxy)azetidin-1-yl)(1-(methoxymethyl)cyclopropyl) methanone]
0.46 nM		104	CCc1nc2ccccc2n1-c1nc(N2CCOCC2)c2nc(OC3CN(C(=O)C4C[C@@H]4F)C3)n(C)c2n1 (stereo partly drawn) [Compound 157, (3-(2-(2-ethyl-1H-benzo[d]imidazol-1-yl)-9-methyl-6-morpholino-9H-purin-8-yloxy)azetidin-1-yl)((2S)-2-fluorocyclopropyl)methanone]
